Values after ≈ are worked out from the molar mass of the structure shown. Where two headings read alike, the source gives them in different places. Where a SMILES comes first, the peptide text is derived from it. [ ]: non-standard residue; d: D form. The star is where a group is joined. Octanoyl = CCCCCCCC(=O)*; Orn = NCCC[C@H](N)C(=O)O
Tests used:
S. mutans = assay: anaerobic anti-microbial susceptibility test (MIC); assay type: cell-based; design: unit not given here; conditions: 24-48 hours
[1] = system: E. coli ATCC strain 25922; assay: Minimal Inhibitory Concentration, microtiter broth dilution; assay type: cell-based
Method in brief: (§1)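 Broth microdilution per NCCLS M7-T2: final peptide levels 0.25 to 256 μg/ml (twofold steps), inoculum 1-5×10^5 CFUs/ml in full-strength Mueller Hinton broth. MIC read as lowest concentration leaving the well clear after 16-20 hours at 37° C.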

C. albicans ATCC 90028 = assay type: cell-based
Experimental: (§2) The procedure for the anti-bacterial assay is based upon the guidelines of the National Committee for Clinical Laboratory Standards, Document M7-T2, Volume 8, No. 8, 1988, which document is entirely incorporated herein by reference.
(§3) Stock solutions of peptides, with and without the appropriate substitutions, were prepared at a concentration of 512 μg/ml in sterile deionized distilled water and stored at −70° C.
(§4) The stock peptide solution was diluted in serial dilutions (1:2) down the wells of a microtiter plate so that the final concentrations of peptides in the wells were 0.25, 0.50, 1, 2, 4, 8, 16, 32, 64, 128 and 256 μg/ml. 1-5×10^5 CFUs/ml of either S. aureus ATCC 25923, E. coli ATCC 25922, P. aeruginosa ATCC 27853, or C. albicans, were added to the wells in full strength Mueller Hinton broth (BBL 11443) from a mid-log culture. The inoculum was standardized spectrophotometrically at 600 nm and was verified by colony counts. The plates were incubated for 16-20 hours at 37° C., and the minimal inhibitory concentration (MIC) for each peptide was determined. Minimal inhibitory concentration is defined as the lowest concentration of peptide which produces a clear well in the microtiter plate. The minimal inhibitory concentration of each of the peptides with and/or without the appropriate substitutions is given in Table I below.
(§5) The in vitro anti-microbial activities of the methane sulfonate derivatives were determined according to the methods described in Examples 1 and 2. The activities against ATCC strains of S. aureus, E. coli, P. aeruginosa, and C. albicans, and the hemolysis of red blood cells were compared to the parent compound (Table IV). The activities for Compound 843 (Oct-SEQ ID NO:143) methane sulfonate against clinical strains of P. aeruginosa isolated from cystic fibrosis patients were compared to the parent compound (Table V). The activity for Compound 469 (Oct-SEQ ID NO:27) methane sulfonate against P. gingivalis was compared to the parent compound (Table VI).

S. aureus ATCC 29213 = assay type: cell-based
C. albicans = assay type: cell-based
Method in brief: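 Broth microdilution: mid-log organisms at 1-5×10^5 CFU/ml in Mueller Hinton broth exposed to 2-fold peptide series (0.25–256 μg/ml final). After 16-20 h at 37° C, MIC read as the lowest concentration leaving the well clear.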

A. viscosus = assay: anaerobic anti-microbial susceptibility test (MIC); assay type: cell-based; conditions: 24-48 hours
[2] = system: P. aeruginosa strain ATCC 27853; assay type: cell-based
Method in brief: as §1

red blood cells = assay: hemolysis of red blood cells; assay type: cell-based
Experimental: as §5

[3] = system: lipopolysaccharide from E. coli serotype 0111:B4; assay: survival of mice after lipopolysaccharide and galactosamine; assay type: in vivo
Experimental: Oct-(SEQ ID NO: 143)—NH2 was injected intravenously into male C57BL/6J mice (average body weight 20.1 g) approximately two minutes prior to intraperitoneal injection of a solution of lipopolysaccharide (either 0.1 μg or 0.5 μg/mouse) from E. coli serotype 0111:B4 and galactosamine (8 mg/mouse). […] When these doses were administered prior to the administration of 0.1 μg lipopolysaccharide/mouse, the results were 40%, 90%, 100%, 100%, and 100% survival at five days post-lipopolysaccharide administration, respectively.

[4] = system: S.aureus strain ATCC 25923; assay: Minimal Inhibitory Concentration, microtiter broth dilution; assay type: cell-based; conditions: Mueller Hinton broth, 16-20 hours at 37° C.
Description: Table I, which follows, indicates the Minimal Inhibitory Concentration (MIC) in […] of various peptides against S.aureus strain ATCC 25923(S), P. aeruginosa strain ATCC 27853(P), E. coli ATCC strain 25922(E), and C. 4albicans (CA). […] The peptides are unsubstituted at the N-terminal; substituted with an acetyl group at the N-terminal, as indicated by Ac-; substituted with an octanoyl group at the N-terminal, as indicated by Oct-; substituted with spinogosine, as indicated by Sph-; substituted with a succinyl group, as indicated by Suc-; substituted with a hexanoyl group, as indicated by Hex-; substituted with a heptanoyl group, as indicated by Hep-; substituted with a valeryl group, as indicated by Val-; substituted with a myristryl group, as indicated by Myr-; or substituted with an ibuprofyl group, as indicated by Ibu-;
as §2, §3, §4

[5] = system: clinical strains of P. aeruginosa isolated from cystic fibrosis patients; assay: MIC against clinical isolates of P. aeruginosa; assay type: cell-based, Pseudomonas aeruginosa; conditions: clinical isolate
Experimental: as §2, §3, §4, §5

[6] = maximal tolerated dose, single intravenous administration of Compound 1324; assay type: in vivo, mice; conditions: mouse, in vivo; single intravenous bolus, CD-1 mice; read-out: MTD i.v. (maximum tolerated dose, non-lethal)
Experimental: Mice received single intravenous administrations of Compound 1324, the methane sulfonate analogue of Compound 843, and were monitored for survival for at least 4 days. There were no deaths at a dose of less than or equal to 180 mg/kg.
To determine the maximal tolerated dose (MTD) and estimate the lethal dose 50% (LD50) of Compound 1324 sodium when administered intravenously in a single-bolus in mice.
Animals: On arrival and study initiation, three groups Thirty-seven male CD-1 mice (Charles River Lab)had average body weights of 39, 28 and 28 gm, respectively.
Solution Prep: A 120 mg/ml of active Compound 1324 (active moiety corrected for) was made in saline. All concentrations from 5 mg/ml to 80 mg/ml were dilutions of the 120 mg/ml solution with saline. The highest concentration used in the intravenous administration was 20 mg/ml.
Mice were randomly assigned to one of ten groups (4 mice per group, except the highest dose group which only had one mouse). Mice were administered intravenously 10 ml/kg of either 0 (saline), 5, 6, 7, 8, 14, 16, 18, or 20 mg/ml solution for doses of […]. One mouse received 14.1 ml/kg of a 20 mg/ml solution for a dose of 282 mg/kg. Mice were monitored for survival for at least four days post-administration.

E. coli strain 21915-1 = assay: survival of mice inoculated intraperitoneally with live E. coli; assay type: in vivo; conditions: i.v. at 1 and 5 hours post-inoculation, 10 mice
Experimental: CD-1 male mice (average body weight, 22.8g) were inoculated with live E. coli strain 21915-1 (2.3×10^5 CFU mouse) by injection intraperitoneally. Oct-(SEQ ID NO: 143)—NH2 then was injected intravenously via the tail vein at 1 and 5 hours post-inoculation. Control mice were inoculated and treated with 0.9% saline. Each different treatment group had 10 mice per group. All control mice died.

CCCCCCCC(=O)N[C@@H](CCCCN)C(=O)N[C@H](C(=O)N[C@@H](C)C(=O)NCC(=O)N[C@@H](CCCCN)C(=O)N[C@H](C(=O)N[C@@H](C)C(=O)N[C@@H](CCCCN)C(=O)N[C@H](C(=O)N[C@@H](C)C(=O)NCC(=O)N[C@@H](CCCCN)C(=O)N[C@H](C(=O)N[C@@H](C)C(=O)N[C@@H](CCCCN)C(=O)N[C@H](C(=O)N[C@@H](C)C(=O)NCC(=O)N[C@@H](CCCCN)C(=O)N[C@H](C(=O)N[C@@H](C)C(N)=O)[C@@H](C)CC)[C@@H](C)CC)[C@@H](C)CC)[C@@H](C)CC)[C@@H](C)CC)[C@@H](C)CC [Oct-(SEQ ID NO: 27)-NH2, (Oct-KIAGKIA)3-NH2)] (Octanoyl-KIAGKIAKIAGKIAKIAGKIA-NH2)
MIC S. mutans (S. mutans): 16 | MIC P. gingivalis ATTC 33277 (P. gingivalis): 4 µg/mL (≈ 1.83 µM) | MIC P. gingivalis (strain) 9-14K-1 (P. gingivalis; anaerobic, 24-48 hours): 4 μl/ml | MIC P. gingivalis (strain) 381 (P. gingivalis; anaerobic, 24-48 hours): 16 μl/ml | MIC P. gingivalis (strain) 450 (P. gingivalis; anaerobic, 24-48 hours): 16 μl/ml | MIC P. gingivalis (strain) A7A1-28 (P. gingivalis; anaerobic, 24-48 hours): 4 μl/ml | MIC P. gingivalis (strain) FAY-19M-1 (P. gingivalis; anaerobic, 24-48 hours): 4 μl/ml | MIC E. coli ATCC 25922 ([1]; ATCC strain 25922): 4 µg/mL (≈ 1.83 µM) | Minimal Inhibitory Concentration E ([1]; ATCC strain 25922): 2 µg/mL | MIC C. albicans ATCC 90028 (C. albicans ATCC 90028; ATCC 90028): 64 µg/mL (≈ 29.2 µM) | MIC S. aureus ATCC 29213 (S. aureus ATCC 29213; ATCC 29213): 2 µg/mL (≈ 0.914 µM) | Minimal Inhibitory Concentration CA (C. albicans): 16 µg/mL | MIC A. viscos (A. viscosus): 16 μl/ml | MIC P. aeruginosa ATCC 27853 ([2]; ATCC 27853): 4 to 8 µg/mL | Minimal Inhibitory Concentration P ([2]; ATCC 27853): 4 µg/mL | % Hemolysis (500 μg/ml) (red blood cells): 100%

CCCCCCCC(=O)N[C@@H](CCCN)C(=O)N[C@@H](CCCN)C(=O)N[C@@H](CC(C)C)C(=O)N[C@@H](CC(C)C)C(=O)N[C@@H](CCCN)C(=O)N[C@@H](CCCN)C(=O)N[C@@H](CC(C)C)C(=O)N[C@@H](CCCN)C(=O)N[C@@H](CCCN)C(=O)N[C@@H](CC(C)C)C(N)=O [Oct-(SEQ ID NO: 143)-NH2] (Octanoyl-[Orn][Orn]LL[Orn][Orn]L[Orn][Orn]L-NH2)
survival at five days post-lipopolysaccharide administration ([3]; 5 mg/kg i.v. (by order of the list), 0.1 μg lipopolysaccharide/mouse): 90% | survival at five days post-lipopolysaccharide administration ([3]; 5 mg/kg i.v., 0.5 μg lipopolysaccharide/mouse): 0% | survival at five days post-lipopolysaccharide administration ([3]; 7.5 mg/kg i.v. (by order of the list), 0.1 μg lipopolysaccharide/mouse): 100% | survival at five days post-lipopolysaccharide administration ([3]; 7.5 mg/kg i.v., 0.5 μg lipopolysaccharide/mouse): 30% | survival at five days post-lipopolysaccharide administration ([3]; 10 mg/kg i.v. (by order of the list), 0.1 μg lipopolysaccharide/mouse): 100% | survival at five days post-lipopolysaccharide administration ([3]; 10 mg/kg i.v., 0.5 μg lipopolysaccharide/mouse): 0% | survival at five days post-lipopolysaccharide administration ([3]; 12.5 mg/kg i.v. (by order of the list), 0.1 μg lipopolysaccharide/mouse): 100% | survival at five days post-lipopolysaccharide administration ([3]; 12.5 mg/kg i.v., 0.5 μg lipopolysaccharide/mouse): 50% | survival at five days post-lipopolysaccharide administration ([3]; 15 mg/kg i.v., 0.5 μg lipopolysaccharide/mouse): 60% | Minimal Inhibitory Concentration S [4]: 16 µg/mL | Minimal Inhibitory Concentration E ([1]; E. coli ATCC strain 25922, Table I): 16 µg/mL | MIC E. coli ATCC 25922 ([1]; Table IV): 4 µg/mL (≈ 3.12 µM) | MIC C. albicans ATCC 90028 (C. albicans ATCC 90028; Table IV): 64 µg/mL (≈ 50 µM) | MIC Pseudomonas aeruginosa LS-31 [5]: 16 µg/mL (≈ 12.5 µM) | MIC Pseudomonas aeruginosa LS-40 [5]: 4 µg/mL (≈ 3.12 µM) | MIC Pseudomonas aeruginosa LS-43 [5]: 2 µg/mL (≈ 1.56 µM) | MIC S. aureus ATCC 29213 (S. aureus ATCC 29213; Table IV): 16 µg/mL (≈ 12.5 µM) | Minimal Inhibitory Concentration CA (C. albicans; C. albicans, Table I): 16 µg/mL | MTD [6]: 20 mg/kg | Minimal Inhibitory Concentration P ([2]; P. aeruginosa strain ATCC 27853, Table I): 2 µg/mL | MIC P. aeruginosa ATCC 27853 ([2]; Table IV): 2 µg/mL (≈ 1.56 µM) | MIC Pseudomonas aeruginosa ATCC 27853 ([2]; Table V): 4 µg/mL (≈ 3.12 µM) | % Hemolysis (500 μg/ml) (red blood cells): 25% | survival at six days post-inoculation (E. coli strain 21915-1; 1 mg/kg in toto): 20% | survival at six days post-inoculation (E. coli strain 21915-1; 5 mg/kg in toto): 40% | survival at six days post-inoculation (E. coli strain 21915-1; 10 mg/kg in toto): 90% | survival at six days post-inoculation (E. coli strain 21915-1; 20 mg/kg in toto): 90%
